This note sets out measurements from patent publication US11130974B2, “Hydroxylated fatty acid homopolymer and production method thereof” (KYOTO UNIVERSITY, priority 2017, dated 2021).

The data set addresses T1, hydroxylated fatty acid dehydrogenase (CLA-DH) (Lactiplantibacillus plantarum, UniProt P0DX40).
T1 construct: made in house; host or cells: Escherichia coli (cell-free extract, not purified)
T1 sequence (P0DX40 1-286): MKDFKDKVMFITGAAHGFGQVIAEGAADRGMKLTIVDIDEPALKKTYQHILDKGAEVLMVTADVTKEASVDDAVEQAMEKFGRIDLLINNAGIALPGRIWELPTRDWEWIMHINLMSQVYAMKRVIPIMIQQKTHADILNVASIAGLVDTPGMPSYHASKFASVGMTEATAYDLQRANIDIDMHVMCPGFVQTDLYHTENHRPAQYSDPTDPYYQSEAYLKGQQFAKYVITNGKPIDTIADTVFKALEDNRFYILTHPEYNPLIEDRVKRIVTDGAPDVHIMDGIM
Kind of data set: Comparison of oxidation stability: oxidation reaction with NAD+ in the presence of hydroxylated fatty acid dehydrogenase (CLA-DH), NADH measured at 340 nm. As to conditions: 0.143 mg/mL substrate (0.48 mM HYA), 4 mM NAD+, CLA-DH-expressing Escherichia coli cell-free extract, 37° C., about 6 min. It counts as biochemical. As for the experimental part: The oxidation stability was compared between the reaction extract (homopolymer mixture) obtained in Example 1 and HYA. The oxidation reaction was performed using NAD^+ as an electron receptor in the presence of hydroxylated fatty acid dehydrogenase (CLA-DH) (S. Kishino et al., Polyunsaturated fatty acid saturation by gut lactic acid bacteria affecting host lipid composition. Proc. Natl. Acad. Sci. USA, 110(44), 17808-17813, 2013).
The reaction mixture (3 mL) contained CLA-DH-expressing Escherichia coli cell-free extract (150 μL, derived from 50 mg Escherichia coli wet cells) as hydroxylated fatty acid dehydrogenase, 4 mM NAD^+, 150 μL of ethanol, and 0.48 mM (0.143 mg/mL) HYA or equal amount (0.143 mg/mL) of a homopolymer mixture as a substrate, and the reaction was started by the addition of hydroxylated fatty acid dehydrogenase and performed at 37° C. for about 6 min. […] The progress of oxidation was quantified by measuring the change in absorbance at 340 nm of NADH amount produced by the oxidation of the substrate (the molecular absorption coefficient of NADH was 6.3×10^3 L·mol^−1 cm^−1).

In the case of `CCCCC/C=C\CC(O)CCCCCCCCC(=O)O` (stereo not drawn) [HYA, 10-hydroxy-cis-12-octadecenoic acid], the oxidation rate came to 2.9 µM/min.
